# Source: patent publication US4339535A, “Process for preparing antibiotic EM 4940” (E. R. Squibb & Sons, Inc., priority 1980, dated 1982)
# Where two headings read alike, the source gives them in different places.
# Columns and labels:
# [1] = system: T. mentagrophytes; assay: MIC against dermatophytes; format: cell-based; settings: Trichophyton mentagrophytes; Table VI; strain 2637; 26° C., 48 hours; read-out: Minimum Inhibitory Concentration
# [2] = system: Salmonella typhimurium; assay: MIC aerobic screen, H-59 synthetic agar; settings: Salmonella enterica, read-out: Minimum Inhibitory Concentration
# [3] = system: Klebsiella penumoniae; assay: MIC aerobic screen, H-59 synthetic agar; settings: read-out: Minimum Inhibitory Concentration
# [4] = system: Peptostreptococcus anaerobius; assay: MIC anaerobic screen; format: cell-based; settings: Table IV, strain 11,263, read-out: Minimum Inhibitory Concentration
# [5] = system: Enterobacter cloacae; assay: MIC aerobic screen, H-59 synthetic agar; settings: read-out: Minimum Inhibitory Concentration
# [6] = system: Clostridium sporogenes; assay: MIC anaerobic screen; format: cell-based; settings: Table IV, strain 2372, read-out: Minimum Inhibitory Concentration
# Procedure: (§1) The antibiotic is prepared as described above for the aerobic screen.
# (§2) All organisms are maintained in a tube of chopped meat broth with glucose supplied by Scott Laboratories in Rhode Island. Two days prior to running the test 0.1 ml of the maintained culture is transferred to a fresh tube of chopped meat broth, and the tube is incubated at 37° C. for 48 hours. After 48 hours incubation each culture is assumed to have grown to 1×10^8 CFU/ml.
# (§3) The organisms are stamped onto antibiotic containing agar plates (Mueller Hinton Agar BBL+5% whole sheep blood+0.2% lysed sheep blood) to give an inoculum level of 10^5 CFU.
# (§4) After stamping, the plates are placed in an anaerobic gas pack system (BBL) and incubated at 37° C. for 18 hours.
# [7] = system: Clostridium histolyticum; assay: MIC anaerobic screen; format: cell-based; settings: Hathewaya histolytica, Table IV, strain 8572, read-out: Minimum Inhibitory Concentration
# Procedure: as §1, §2, §3, §4
# [8] = system: Clostridium septicum; assay: MIC anaerobic screen; format: cell-based; settings: Table IV, strain 1780, read-out: Minimum Inhibitory Concentration
# Procedure: as §1, §2, §3, §4
# [9] = system: Eubacterium lentum; assay: MIC anaerobic screen; format: cell-based; settings: Eggerthella lenta, Table IV, strain 11,261, read-out: Minimum Inhibitory Concentration
# Procedure: as §1, §2, §3, §4
# [10] = system: Fusobacterium necrophorum; assay: MIC anaerobic screen; format: cell-based; settings: Table IV, strain 11,338, read-out: Minimum Inhibitory Concentration
# Procedure: as §1, §2, §3, §4
# [11] = system: Klebsiella aerogenes; assay: MIC aerobic screen, H-59 synthetic agar; settings: read-out: Minimum Inhibitory Concentration
# [12] = system: Serratia marcescens; assay: MIC aerobic screen, BA-2 agar; settings: Serratia marcescens
# [13] = system: Acinetobacter calcoaceticus; assay: MIC aerobic screen, H-59 synthetic agar; settings: read-out: Minimum Inhibitory Concentration
# [14] = system: T. rubrum; assay: MIC against dermatophytes; format: cell-based; settings: Trichophyton rubrum; Table VI; strain 9199; 26° C., 48 hours; read-out: Minimum Inhibitory Concentration
# [15] = system: Staphylococcus aureus; assay: MIC aerobic screen, BA-2 agar; settings: Staphylococcus aureus
# [16] = system: Serratia marcescens; assay: MIC aerobic screen, H-59 synthetic agar
# [17] = solubility; format: physicochemical
# [18] = system: M. canis; assay: MIC against dermatophytes; format: cell-based; settings: Microsporum canis; Table VI; strain 9237; 26° C., 48 hours; read-out: Minimum Inhibitory Concentration
# [19] = system: Shigella sonnei; assay: MIC aerobic screen, BA-2 agar; format: cell-based; settings: strain 8449
# [20] = system: Proteus rettgeri; assay: MIC aerobic screen, BA-2 agar; settings: Providencia rettgeri, read-out: Minimum Inhibitory Concentration
# [21] = system: Hemophilus vaginalis; assay: MIC anaerobic screen; format: cell-based; settings: Table IV
# [22] = system: Streptococcus faecalis; assay: MIC aerobic screen, BA-2 agar; settings: Enterococcus faecalis, strain 9011
# [23] = system: Escherichia coli; assay: MIC aerobic screen, BA-2 agar; settings: Escherichia coli
# [24] = system: gram-positive and gram-negative bacteria, yeasts, fungi, acholeplasma, and the protozoan Trichomonas vaginalis; assay: biological activity, general statement; settings: A form versus B form
# [25] = system: Proteus morganii; assay: MIC aerobic screen, BA-2 agar; settings: Morganella morganii, strain 9774
# [26] = system: Streptococcus faecalis; assay: MIC aerobic screen, H-59 synthetic agar; settings: Enterococcus faecalis, read-out: Minimum Inhibitory Concentration
# [27] = system: Pseudomonas aeruginosa; assay: MIC aerobic screen, H-59 synthetic agar
# [28] = system: Shigella sonnei; assay: MIC aerobic screen, H-59 synthetic agar; format: cell-based; settings: Table III, H-59 agar, strain 8449, read-out: Minimum Inhibitory Concentration
# Text: (A) Using H-59 Synthetic Agar
# [29] = read-out: Minimum Inhibitory Concentration, Table I, BA-2 agar
# [30] = read-out: Minimum Inhibitory Concentration, Table II, additional tests
structure (smiles),measurement,setting,value
"CC1(O)CC(C(N)=O)N=C1c1ncccc1O (stereo not drawn) [EM4940A, 2,4-trans-3,4-dihydro-4-hydroxy-5-(3-hydroxy-2-pyridinyl)-4-methyl-2H-pyrrole-2-carboxamide]",MIC,[1],> 100 µg/mL
same,MIC,[2],50 µg/mL
same,MIC,[3],50 µg/mL
same,MIC,[4],50 µg/mL
same,MIC,[5],100 µg/mL
same,MIC,[6],12.5 µg/mL
same,MIC,[7],12.5 µg/mL
same,MIC,[8],12.5 µg/mL
same,MIC,[9],12.5 µg/mL
same,MIC,[10],12.5 µg/mL
same,MIC,[11],50 µg/mL
same,MIC,"[12]; read-out: Minimum Inhibitory Concentration, Table I, BA-2 agar, strain 1111",> 100 µg/mL
same,MIC,"[12]; read-out: Minimum Inhibitory Concentration, Table I, BA-2 agar, strain 9782",100 µg/mL
same,MIC,"[12]; read-out: Minimum Inhibitory Concentration, Table II, additional tests, strain 9782",50 µg/mL
same,MIC,"[12]; read-out: Minimum Inhibitory Concentration, Table II, additional tests, strain 11,111",100 µg/mL
same,MIC,[13],25 µg/mL
same,MIC,[14],50 µg/mL
same,MIC,"[15]; read-out: Minimum Inhibitory Concentration, Table I, BA-2 agar, strain 2400",> 100 µg/mL
same,MIC,"[15]; read-out: Minimum Inhibitory Concentration, Table I, BA-2 agar, strain 10,165",50 µg/mL
same,MIC,"[15]; read-out: Minimum Inhibitory Concentration, Table I, BA-2 agar, strain 11,239",> 100 µg/mL
same,MIC,"[15]; read-out: Minimum Inhibitory Concentration, Table II, additional tests, strain 2400",> 200 µg/mL
same,MIC,"[15]; read-out: Minimum Inhibitory Concentration, Table II, additional tests, strain 2661",> 200 µg/mL
same,MIC,"[15]; read-out: Minimum Inhibitory Concentration, Table II, additional tests, strain 10,165",100 µg/mL
same,MIC,"[15]; read-out: Minimum Inhibitory Concentration, Table II, additional tests, strain 11,239",50 µg/mL
same,MIC,"[16]; Serratia marcescens, read-out: Minimum Inhibitory Concentration",100 µg/mL
same,Minimum Inhibitory Concentration,"[16]; Table III, H-59 agar, strain 11,111",100.0 µg/mL
same,solubility,[17]; hexane,Insoluble
same,solubility,"[17]; methanol, ethanol, ethyl acetate, acetone and chloroform",soluble
same,solubility,[17]; water,Insoluble
same,MIC,[18],100 µg/mL
same,MIC,"[19]; Shigella sonnei, Table I, BA-2 agar, read-out: Minimum Inhibitory Concentration",50 µg/mL
same,Minimum Inhibitory Concentration,"[19]; Table II, additional tests",50 µg/mL
same,MIC,[20],50 µg/mL
same,MIC,"[21]; strain 8568, read-out: Minimum Inhibitory Concentration",100 µg/mL
same,Minimum Inhibitory Concentration,[21]; strain 9640,100.00 µg/mL
same,MIC,[22]; [29],> 100 µg/mL
same,MIC,[22]; [30],> 200 µg/mL
same,MIC,"[23]; read-out: Minimum Inhibitory Concentration, Table I, BA-2 agar, strain 10,404",100 µg/mL
same,MIC,"[23]; read-out: Minimum Inhibitory Concentration, Table I, BA-2 agar, strain 10,857",50 µg/mL
same,MIC,"[23]; read-out: Minimum Inhibitory Concentration, Table I, BA-2 agar, strain 10,896",25 µg/mL
same,MIC,"[23]; read-out: Minimum Inhibitory Concentration, Table II, additional tests, strain 10,404",50 µg/mL
same,MIC,"[23]; read-out: Minimum Inhibitory Concentration, Table II, additional tests, strain 10,857",50 µg/mL
same,biological activity of A form relative to B form,[24],more active than the B form
same,MIC,[25]; [29],50 µg/mL
same,MIC,[25]; [30],100 µg/mL
same,MIC,[26],> 100 µg/mL
same,MIC,"[27]; read-out: Minimum Inhibitory Concentration, Table III, H-59 agar, strain 8754",> 100 µg/mL
same,MIC,"[27]; read-out: Minimum Inhibitory Concentration, Table III, H-59 agar, strain 9330",50 µg/mL
same,MIC,"[27]; read-out: Minimum Inhibitory Concentration, Table III, H-59 agar, strain 9545",25 µg/mL
same,MIC,[28],50 µg/mL
